Assay [1] has as its target T1, human 5-HT6 receptor (Homo sapiens, UniProt P50406). The assay is described as follows: Effect of compounds on the cAMP response of human 5-HT6 receptors (stably transfected HEK293 cells, cAMP EIA). The arrangement: expressed in transfected cells; host or cells: HEK293. Type of assay: cell-based.
Procedure: The antagonist (or agonist ) property of compounds for human 5-HT6 receptors was determined by testing their effect on cAMP accumulation in stably transfected HEK293 cells.
Human 5-HT6 receptors were cloned and stably expressed in HEK293 cells. These cells were plated in 6 well plates in DMEM/F12 media with 10% fetal calf serum (FCS) and 500 μg/mL G418 and incubated at 37° C. in a CO2 incubator. The cells were allowed to grow to about 70% confluence before initiation of the experiment.
On the day of the experiment, the culture media was removed, and the cells were washed once with serum free medium (SFM). Two mL of SFM+IBMX media was added and incubated at 37° C. for 10 min. The media were removed and fresh SFM+IBMX media containing various compounds, and 1 μM serotonin (as antagonist) were added to the appropriate wells and incubated for 30 min. […]
cAMP content was determined by EIA (enzyme-immunoassay) using the Amersham Biotrak cAMP EIA kit (Amersham RPN 225). […] Briefly, cAMP is determined by the competition between unlabeled cAMP and a fixed quantity of peroxidase-labelled cAMP for the binding sites on anti-cAMP antibody. […] The reaction is stopped by the addition of 100 μL 1.0 M sulfuric acid and the resultant color read by a microtitre plate spectrophotometer at 450 nM within 30 minutes. […]
In assay [2] the target is T2, human 5-HT2c receptor (Homo sapiens, UniProt P28335).
T2 sequence (P28335 33-458): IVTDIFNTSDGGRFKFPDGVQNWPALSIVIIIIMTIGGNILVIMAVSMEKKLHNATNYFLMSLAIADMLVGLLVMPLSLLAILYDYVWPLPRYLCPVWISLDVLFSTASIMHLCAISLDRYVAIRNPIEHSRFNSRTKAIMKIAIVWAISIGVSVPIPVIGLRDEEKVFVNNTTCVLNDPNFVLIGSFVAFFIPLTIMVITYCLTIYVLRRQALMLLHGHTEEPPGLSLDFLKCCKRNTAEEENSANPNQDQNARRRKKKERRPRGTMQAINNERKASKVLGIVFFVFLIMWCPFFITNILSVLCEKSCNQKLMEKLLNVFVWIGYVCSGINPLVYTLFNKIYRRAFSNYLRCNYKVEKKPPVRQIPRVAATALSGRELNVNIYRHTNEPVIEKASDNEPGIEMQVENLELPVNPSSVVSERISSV
The assay is described as follows: Selectivity of binding to the human 5-HT6 receptor relative to the human 5-HT2c receptor. The note with it: 5-HT6 vs 5-HT2c. Here is the method:
(§1) All of the compounds of the invention were evaluated using cell types receptive specifically to the 5-HT6 receptor (for cloning and characterization of the human 5-HT6 receptor see Kohen, et al. J. Neurochemistry, 66, 1996: 47-56). […] After a 60 minute incubation at 37° C., the incubation was terminated by vacuum filtration. The filters were washed with buffer and the filters were counted for radioactivity using liquid scintillation spectrometry. The affinity of the test compound for the 5-HT6 receptor was determined by computer-assisted analysis of the data and determining the amount of the compound necessary to inhibit 50% of the binding of the radioligand to the receptor. Concentrations ranging from 10^-11 M to 10^-5 M of the test compound were evaluated.

Assay [3] addresses human 5-HT7 receptor (Homo sapiens, UniProt P34969). The assay is described as follows: Selectivity of binding to the human 5-HT6 receptor relative to the human 5-HT7 receptor. The note with it: 5-HT6 vs 5-HT7.
Assay [4] deals with T1, human 5-HT6 receptor. Briefly: Binding affinity for the 5-HT6 receptor (3H-LSD radioligand binding, membranes of cells expressing the receptor). The arrangement: expressed in transfected cells. The note with it: 60 minute incubation at 37° C. Here is the method:
as §1

Structures can show the parent of a compound that is named as a salt. Where two headings read alike, the source gives them in different places.

Chain of human 5-HT7 receptor (P34969 whole entry): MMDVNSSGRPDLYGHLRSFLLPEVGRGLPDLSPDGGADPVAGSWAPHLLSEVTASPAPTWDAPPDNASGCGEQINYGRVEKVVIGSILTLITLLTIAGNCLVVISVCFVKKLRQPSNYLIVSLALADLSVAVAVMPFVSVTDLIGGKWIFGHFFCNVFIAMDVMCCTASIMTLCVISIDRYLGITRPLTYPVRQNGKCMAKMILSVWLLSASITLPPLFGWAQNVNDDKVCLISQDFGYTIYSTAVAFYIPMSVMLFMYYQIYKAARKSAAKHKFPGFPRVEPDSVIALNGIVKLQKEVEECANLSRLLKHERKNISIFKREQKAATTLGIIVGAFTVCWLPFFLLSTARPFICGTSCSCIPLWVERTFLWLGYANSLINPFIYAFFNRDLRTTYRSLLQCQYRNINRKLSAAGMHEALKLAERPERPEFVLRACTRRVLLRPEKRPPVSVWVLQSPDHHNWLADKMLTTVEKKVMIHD
T1 sequence (P50406 whole entry): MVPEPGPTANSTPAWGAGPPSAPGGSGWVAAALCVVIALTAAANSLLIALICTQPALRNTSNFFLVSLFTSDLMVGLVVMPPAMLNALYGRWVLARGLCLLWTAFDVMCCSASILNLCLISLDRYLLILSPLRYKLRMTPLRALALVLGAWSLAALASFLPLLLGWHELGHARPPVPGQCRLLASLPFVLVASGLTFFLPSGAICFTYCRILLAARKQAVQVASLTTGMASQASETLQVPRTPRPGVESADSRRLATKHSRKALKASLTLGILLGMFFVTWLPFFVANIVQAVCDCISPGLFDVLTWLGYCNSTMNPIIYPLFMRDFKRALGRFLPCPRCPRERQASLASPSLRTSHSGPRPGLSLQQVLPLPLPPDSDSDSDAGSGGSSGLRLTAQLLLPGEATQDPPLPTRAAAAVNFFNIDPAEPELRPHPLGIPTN

For the molecule `CN1CC=C(c2cn(S(=O)(=O)c3ccc(F)cc3)c3ccc(F)cc23)CC1` [6 cc], the EC50 in assay [1] (read-out: EC50, concentration causing 50% inhibition of the serotonin-stimulated cAMP response, 1 μM serotonin, 30 min) came to 0.01 µM.
For `CN1CCC(c2c[nH]c3cc(Cl)ccc23)CC1` [Example 5b, 6-Chloro-3-(1-methyl-4-piperidinyl)-1H-indole], the EC50 in assay [1] (1 μM serotonin, 30 min, read-out: EC50, concentration causing 50% inhibition of the serotonin-stimulated cAMP response) was found to be 1.9 µM.
Take `Cc1ccc(S(=O)(=O)n2cc(C3=CCN(C)CC3)c3cc(F)ccc32)cc1` [Example 6b, 5-Fluoro-1-(4-methylphenylsulfonyl)-3-(1-methyl-1,2,3,6-tetrahydro-4-pyridinyl)indole]: in assay [2], the “greater affinity for human 5-HT6 receptor relative to human 5-HT2c receptor” value is ≥ 60 fold. For the same molecule, the “greater affinity for human 5-HT6 receptor relative to human 5-HT7 receptor” value in assay [3] is reported as ≥ 60 fold.
What is called Ki is a measure of affinity in units of concentration, obtained from inhibition or displacement. As for `CN1CC=C(c2cn(C(=O)c3ccccc3Cl)c3ccc(F)cc23)CC1` [Example 6c, 1-(2-Chlorobenzoyl)-5-fluoro-3-(1-methyl-1,2,3,6-tetrahydro-4-pyridinyl)indole], in assay [4] (Ki), the Ki was ≤ 0.005 µM.
Still for that read-out and setting: next, `CN1CC=C(c2cn(C(=O)c3c(Cl)cccc3Cl)c3ccc(F)cc23)CC1` [Example 6f, 1-(2,6-Dichlorobenzoyl)-5-fluoro-3-(1-methyl-1,2,3,6-tetrahydro-4-pyridinyl)indole]: ≤ 0.005 µM.
Turning to `CN1CC=C(c2cn(C(=O)c3ccccc3)c3ccc(Br)cc23)CC1` [Example 6g, 1-Benzoyl-5-bromo-3-(1-methyl-1,2,3,6-tetrahydro-4-pyridinyl)indole], in assay [2], the “greater affinity for human 5-HT6 receptor relative to human 5-HT2c receptor” value is recorded as ≥ 60 fold. Moreover, the Ki in assay [4] (Ki) is ≤ 0.05 µM. Also, in assay [3], the “greater affinity for human 5-HT6 receptor relative to human 5-HT7 receptor” value was ≥ 60 fold.
On to `CN1CC=C(c2cn(C(=O)c3ccccc3Cl)c3ccc(OC4CCCCC4)cc23)CC1` [Example 7aaa, 1-(2-Chlorobenzoyl)-5-cyclohexyloxy-3-(1-methyl-1,2,3,6-tetrahydro-4-pyridinyl) indole], for which the Ki in assay [4] (Ki) is ≤ 0.005 µM.
Still for that read-out and setting: the value for `CN1CC=C(c2cn(S(=O)(=O)c3ccccc3)c3c(F)cc(F)cc23)CC1` [Example 7aj, 5,7-Difluoro-3-(1-methyl-1,2,3,6-tetrahydro-4-pyridinyl)-1-phenylsulfonylindole] was ≤ 0.005 µM.
On the same count and under the same terms, next, `CN1CC=C(c2cn(S(=O)(=O)c3ccc(Br)cc3)c3c(F)cc(F)cc23)CC1` [Example 7am, 1-(4-Bromophenylsulfonyl)-5,7-difluoro-3-(1-methyl-1,2,3,6-tetrahydro-4-pyridinyl)indole]: ≤ 0.005 µM; `CN1CC=C(c2cn(S(=O)(=O)c3ccc4ccccc4c3)c3c(F)cc(F)cc23)CC1` [Example 7ap, 5,7-Difluoro-3-(1-methyl-1,2,3,6-tetrahydro-4-pyridinyl)-1-(2-naphthylsulfonyl)indole]: ≤ 0.005 µM; `CN1CC=C(c2cn(C(=O)c3ccc(F)cc3)c3c(F)cc(F)cc23)CC1` [Example 7ar, 5,7-Difluoro-1-(4-fluorobenzoyl)-3-(1-methyl-1,2,3,6-tetrahydro-4-pyridinyl)indole]: ≤ 0.005 µM.
Same read-out and setting: the value for `CN1CC=C(c2cn(C(=O)c3cc(Cl)ccc3Cl)c3c(F)cc(F)cc23)CC1` [Example 7as, 1-(2,5-Dichlorobenzoyl)-5,7-difluoro-3-(1-methyl-1,2,3,6-tetrahydro-4-pyridinyl)indole] was ≤ 0.05 µM.
In the case of `CN1CC=C(c2cn(S(=O)(=O)c3ccccc3Br)c3ccc(F)cc23)CC1` [Example 7bb, 1-(2-Bromophenylsulfonyl)-5-fluoro-3-(1-methyl-1,2,3,6-tetrahydro-4-pyridinyl)indole], the “greater affinity for human 5-HT6 receptor relative to human 5-HT2c receptor” value in assay [2] is given as ≥ 60 fold. Also, in assay [3], the “greater affinity for human 5-HT6 receptor relative to human 5-HT7 receptor” value was ≥ 60 fold.
Consider `CN1CC=C(c2cn(S(=O)(=O)c3ccc(F)cc3)c3ccc(F)cc23)CC1` [Example 7cc, 1-(4-Fluorophenylsulfonyl)-5-fluoro-3-(1-methyl-1,2,3,6-tetrahydro-4-pyridinyl)indole], for which the Ki in assay [4] (Ki) was ≤ 0.005 µM.
For `CN1CC=C(c2cn(S(=O)(=O)c3ccc(Cl)cc3)c3ccc(F)cc23)CC1` [Example 7dd, 1-(4-Chlorophenylsulfonyl)-5-fluoro-3-(1-methyl-1,2,3,6-tetrahydro-4-pyridinyl)indole], the “greater affinity for human 5-HT6 receptor relative to human 5-HT2c receptor” value in assay [2] is ≥ 60 fold. Also, the “greater affinity for human 5-HT6 receptor relative to human 5-HT7 receptor” value in assay [3] is recorded as ≥ 60 fold.
On to `CN1CC=C(c2cn(S(=O)(=O)c3cccc4ccccc34)c3ccc(F)cc23)CC1` [Example 7gg, 5-Fluoro-3-(1-methyl-1,2,3,6-tetrahydro-4-pyridinyl)-1-(1-naphthylsulfonyl)indole], for which the Ki in assay [4] (Ki) was ≤ 0.05 µM.
In the case of `CN1CC=C(c2cn(S(=O)(=O)c3ccc4ccccc4c3)c3ccc(F)cc23)CC1` [Example 7hh, 5-Fluoro-3-(1-methyl-1,2,3,6-tetrahydro-4-pyridinyl)-1-(2-naphthylsulfonyl)indole], the “greater affinity for human 5-HT6 receptor relative to human 5-HT2c receptor” value in assay [2] was ≥ 60 fold. Moreover, in assay [3], the “greater affinity for human 5-HT6 receptor relative to human 5-HT7 receptor” value is reported as ≥ 60 fold.
Regarding `Cc1ccc(S(=O)(=O)n2cc(C3=CCN(C)CC3)c3cc(OC4CCCCC4)ccc32)cc1` [Example 7i, 5-Cyclohexyloxy-1-(4-methylphenylsulfonyl)-3-(1-methyl-1,2,3,6-tetrahydro-4-pyridinyl)indole], the “greater affinity for human 5-HT6 receptor relative to human 5-HT2c receptor” value in assay [2] is on record as ≥ 60 fold. In addition, in assay [3], the “greater affinity for human 5-HT6 receptor relative to human 5-HT7 receptor” value is given as ≥ 60 fold.
`CN1CC=C(c2cn(S(=O)(=O)c3ccccc3)c3ccc(F)cc23)CC1` [Example 7ii, 5-Fluoro-3-(1-methyl-1,2,3,6-tetrahydro-4-pyridinyl)-1-phenylsulfonylindole]: in assay [4] (Ki), the Ki is ≤ 0.005 µM.
The same measure, in the same setting: next, `CN1CC=C(c2cn(S(=O)(=O)c3ccccc3)c3cc(Br)ccc23)CC1` [Example 7j, 6-Bromo-3-(1-methyl-1,2,3,6-tetrahydro-4-pyridinyl)-1-phenylsulfonylindole]: ≤ 0.05 µM.
The same measure, in the same setting: next, `CN1CC=C(c2cn(S(=O)(=O)c3ccccc3)c3ccc(Cl)cc23)CC1` [Example 7jj, 5-Chloro-3-(1-methyl-1,2,3,6-tetrahydro-4-pyridinyl)-1-phenylsulfonylindole]: ≤ 0.005 µM; `CN1CC=C(c2cn(C(=O)c3ccccc3)c3ccc(Cl)cc23)CC1` [Example 7jjj, 1-Benzoyl-5-chloro-3-(1-methyl-1,2,3,6-tetrahydro-4-pyridinyl)indole hydrochloride]: ≤ 0.05 µM; `CN1CC=C(c2cn(S(=O)(=O)c3ccccc3)c3ccc(OC4CCCCC4)cc23)CC1` [Example 7m, 5-Cyclohexyloxy-3-(1-methyl-1,2,3,6-tetrahydro-4-pyridinyl)-1-phenylsulfonylindole]: ≤ 0.05 µM.
Same read-out and setting: the value for `CN1CC=C(c2cn(C(=O)c3c(Cl)cccc3Cl)c3ccc(C(F)(F)F)cc23)CC1` [Example 7qqq, 1-(2,6-Dichlorobenzoyl)-3-(1-methyl-1,2,3,6-tetrahydro-4-pyridinyl)-5-trifluoromethyl-indole] was ≤ 0.05 µM; that for `CN1CC=C(c2cn(S(=O)(=O)c3ccccc3)c3ccc(C(F)(F)F)cc23)CC1` [Example 7rr, 3-(1-Methyl-1,2,3,6-tetrahydro-4-pyridinyl)-1-phenylsulfonyl-5-trifluoromethylindole hydrochloride] was ≤ 0.005 µM.
For the molecule `CN1CCC(c2cn(S(=O)(=O)c3ccccc3)c3ccccc23)CC1` [Example 7uuu, 3-(1-Methyl-4-piperidinyl)-1-phenylsulfonylindole], the Ki in assay [4] (read-out: Ki) was ≤ 0.05 µM.
On to `COc1ccc(S(=O)(=O)n2cc(C3=CCN(C)CC3)c3cc(C(F)(F)F)ccc32)cc1` [Example 7vv, 1-(4-Methoxyphenylsulfonyl)-3-(1-methyl-1,2,3,6-tetrahydro-4-pyridinyl)-5-trifluoromethylindole hydrochloride], for which the Ki in assay [4] (Ki) is ≤ 0.05 µM.

The record behind these values is patent publication US6133287A, “Piperidine-indole compounds having 5-HT6 affinity” (Allelix Biopharmaceuticals Inc., priority 1998, dated 2000).
